According to US20230016424A1, “HYBRID AMIDE DERIVATIVES OF AMPHOTERICIN B” (The Board of Trustees of the University of Illinois, priority 2019, published 2023):
In brackets after ≈: the same amount, converted by molar mass.

Assays:
C. krusei = assay: MIC; type: cell-based
A. fumigatus 1100 = assay: MIC; type: cell-based
[1] = tested on: C. albicans SN250, C. albicans, C. krusei, C. glabrata, C. tropicalis, A. fumigatus 91, 1163, 1100; assay: Average MIC over the tested strains; type: cell-based; set-up: Avg. MIC of AmB amide: unit not given here; conditions: for MIC: average over the 8 listed strains
C. tropicalis = assay: MIC; type: cell-based
C. albicans = assay: MIC; type: cell-based
A. fumigatus 91 = assay: MIC; type: cell-based
A. fumigatus 1163 = assay: MIC; type: cell-based
C. albicans SN250 = assay: MIC; type: cell-based, Candida albicans
C. glabrata = assay: MIC; type: cell-based
[2] = Tables 8 and 9, average over the 8 listed strains

SMILES: CC1C=CC=CC=CC=CC=CC=CC=CC(OC2OC(C)C(O)C(N)C2O)CC2OC(O)(CC(O)CC(O)C(O)CCC(O)CC(O)CC(=O)OC(C)C(C)C1O)CC(O)C2C(=O)NC1CCCCCCCCCCC1 (stereo not drawn) [AR12]
- MIC C. krusei (C. krusei): 8000 µM (≈ 8720 µg/mL)
- MIC A. fumigatus 1100 (A. fumigatus 1100): 8000 µM (≈ 8720 µg/mL)
- Average MIC [1, 2]: 5000 µM
- MIC C. tropicalis (C. tropicalis): 3000 µM (≈ 3270 µg/mL)
- MIC C. albicans (C. albicans): 2000 µM (≈ 2180 µg/mL)

SMILES: CC1C=CC=CC=CC=CC=CC=CC=CC(OC2OC(C)C(O)C(N)C2O)CC2OC(O)(CC(O)CC(O)C(O)CCC(O)CC(O)CC(=O)OC(C)C(C)C1O)CC(O)C2C(=O)NCCS (stereo not drawn) [AB]
- MIC C. krusei (C. krusei): 1 µM (≈ 0.983 µg/mL)
- MIC A. fumigatus 91 (A. fumigatus 91): 1 µM (≈ 0.983 µg/mL)
- MIC A. fumigatus 1163 (A. fumigatus 1163): 1 µM (≈ 0.983 µg/mL)
- MIC A. fumigatus 1100 (A. fumigatus 1100): 1 µM (≈ 0.983 µg/mL)
- MIC C. albicans SN250 (C. albicans SN250): 0.4 µM (≈ 0.393 µg/mL)
- MIC C. glabrata (C. glabrata): 0.35 µM (≈ 0.344 µg/mL)
- MIC [1]: 0.706 µM
- MIC C. tropicalis (C. tropicalis): 0.45 µM (≈ 0.442 µg/mL)
- MIC C. albicans (C. albicans): 0.45 µM (≈ 0.442 µg/mL)

SMILES: CC(C)CC(CO)NC(=O)C1C(O)CC2(O)CC(O)CC(O)C(O)CCC(O)CC(O)CC(=O)OC(C)C(C)C(O)C(C)C=CC=CC=CC=CC=CC=CC=CC(OC3OC(C)C(O)C(N)C3O)CC1O2 (stereo not drawn) [AE]
- MIC C. krusei (C. krusei): 1 µM (≈ 1.02 µg/mL)
- MIC A. fumigatus 91 (A. fumigatus 91): 2 µM (≈ 2.05 µg/mL)
- MIC A. fumigatus 1163 (A. fumigatus 1163): 1 µM (≈ 1.02 µg/mL)
- MIC A. fumigatus 1100 (A. fumigatus 1100): 1 µM (≈ 1.02 µg/mL)
- MIC C. albicans SN250 (C. albicans SN250): 1 µM (≈ 1.02 µg/mL)
- MIC C. glabrata (C. glabrata): 0.4 µM (≈ 0.409 µg/mL)
- MIC [1]: 0.956 µM
- MIC C. tropicalis (C. tropicalis): 0.5 µM (≈ 0.512 µg/mL)
- MIC C. albicans (C. albicans): 0.75 µM (≈ 0.767 µg/mL)

SMILES: CC(O)CNC(=O)C1C(O)CC2(O)CC(O)CC(O)C(O)CCC(O)CC(O)CC(=O)OC(C)C(C)C(O)C(C)C=CC=CC=CC=CC=CC=CC=CC(OC3OC(C)C(O)C(N)C3O)CC1O2 (stereo not drawn) [AH]
- MIC C. krusei (C. krusei): 0.75 µM (≈ 0.736 µg/mL)
- MIC A. fumigatus 91 (A. fumigatus 91): 2 µM (≈ 1.96 µg/mL)
- MIC A. fumigatus 1163 (A. fumigatus 1163): 1 µM (≈ 0.981 µg/mL)
- MIC A. fumigatus 1100 (A. fumigatus 1100): 1 µM (≈ 0.981 µg/mL)
- MIC C. albicans SN250 (C. albicans SN250): 0.35 µM (≈ 0.343 µg/mL)
- MIC C. glabrata (C. glabrata): 0.2 µM (≈ 0.196 µg/mL)
- MIC [1]: 0.763 µM
- MIC C. tropicalis (C. tropicalis): 0.45 µM (≈ 0.442 µg/mL)
- MIC C. albicans (C. albicans): 0.35 µM (≈ 0.343 µg/mL)

SMILES: COCCNC(=O)C1C(O)CC2(O)CC(O)CC(O)C(O)CCC(O)CC(O)CC(=O)OC(C)C(C)C(O)C(C)C=CC=CC=CC=CC=CC=CC=CC(OC3OC(C)C(O)C(N)C3O)CC1O2 (stereo not drawn) [AG]
- MIC C. krusei (C. krusei): 1 µM (≈ 0.981 µg/mL)
- MIC A. fumigatus 91 (A. fumigatus 91): 2 µM (≈ 1.96 µg/mL)
- MIC A. fumigatus 1163 (A. fumigatus 1163): 1 µM (≈ 0.981 µg/mL)
- MIC A. fumigatus 1100 (A. fumigatus 1100): 1 µM (≈ 0.981 µg/mL)
- MIC C. albicans SN250 (C. albicans SN250): 0.4 µM (≈ 0.392 µg/mL)
- MIC C. glabrata (C. glabrata): 0.3 µM (≈ 0.294 µg/mL)
- MIC [1]: 0.806 µM
- MIC C. tropicalis (C. tropicalis): 0.4 µM (≈ 0.392 µg/mL)
- MIC C. albicans (C. albicans): 035 µM (≈ 34.3 µg/mL)

SMILES: CC1C=CC=CC=CC=CC=CC=CC=CC(OC2OC(C)C(O)C(N)C2O)CC2OC(O)(CC(O)CC(O)C(O)CCC(O)CC(O)CC(=O)OC(C)C(C)C1O)CC(O)C2C(=O)NC(CO)C(C)(C)C (stereo not drawn) [AF]
- MIC C. krusei (C. krusei): 1 µM (≈ 1.02 µg/mL)
- MIC A. fumigatus 91 (A. fumigatus 91): 2 µM (≈ 2.05 µg/mL)
- MIC A. fumigatus 1163 (A. fumigatus 1163): 2 µM (≈ 2.05 µg/mL)
- MIC A. fumigatus 1100 (A. fumigatus 1100): 2 µM (≈ 2.05 µg/mL)
- MIC C. albicans SN250 (C. albicans SN250): 0.4 µM (≈ 0.409 µg/mL)
- MIC C. glabrata (C. glabrata): 0.4 µM (≈ 0.409 µg/mL)
- MIC [1]: 1.131 µM
- MIC C. tropicalis (C. tropicalis): 0.75 µM (≈ 0.767 µg/mL)
- MIC C. albicans (C. albicans): 0.5 µM (≈ 0.512 µg/mL)

SMILES: CC1C=CC=CC=CC=CC=CC=CC=CC(OC2OC(C)C(O)C(N)C2O)CC2OC(O)(CC(O)CC(O)C(O)CCC(O)CC(O)CC(=O)OC(C)C(C)C1O)CC(O)C2C(=O)NC1CC1 (stereo not drawn) [BD]
- MIC C. krusei (C. krusei): 4 µM (≈ 3.85 µg/mL)
- MIC A. fumigatus 91 (A. fumigatus 91): 8 µM (≈ 7.71 µg/mL)
- MIC A. fumigatus 1163 (A. fumigatus 1163): 6 µM (≈ 5.78 µg/mL)
- MIC A. fumigatus 1100 (A. fumigatus 1100): 4 µM (≈ 3.85 µg/mL)
- MIC C. albicans SN250 (C. albicans SN250): 0.5 µM (≈ 0.482 µg/mL)
- MIC C. glabrata (C. glabrata): 0.5 µM (≈ 0.482 µg/mL)
- MIC [1]: 3.063 µM
- Average MIC for AmB analogue ([1]; value of the corresponding AmB analogue, not of the C2’epi compound): 0.500 μM
- MIC C. tropicalis (C. tropicalis): 0.5 µM (≈ 0.482 µg/mL)
- MIC C. albicans (C. albicans): 1 µM (≈ 0.963 µg/mL)

SMILES: CC1C=CC=CC=CC=CC=CC=CC=CC(OC2OC(C)C(O)C(N)C2O)CC2OC(O)(CC(O)CC(O)C(O)CCC(O)CC(O)CC(=O)OC(C)C(C)C1O)CC(O)C2C(=O)NCC(F)F (stereo not drawn) [BQ]
- MIC A. fumigatus 91 (A. fumigatus 91): 4000 µM (≈ 3950 µg/mL)
- Average MIC ([1]; Table 12, C16 amides of C2'epiAmB): 1.625 µM
- Average MIC ([1]; Table 13, C16 amides of C2’epiAmB): 1625 µM
- Avg. MIC of AmB amide ([1]; value of the corresponding C16 amide of AmB, not of the C2’epi compound): 0.30

SMILES: CC1C=CC=CC=CC=CC=CC=CC=CC(OC2OC(C)C(O)C(N)C2O)CC2OC(O)(CC(O)CC(O)C(O)CCC(O)CC(O)CC(=O)OC(C)C(C)C1O)CC(O)C2C(=O)NC1CC1 (stereo not drawn) [AR3]
- MIC C. krusei (C. krusei): 250 µM (≈ 241 µg/mL)
- MIC A. fumigatus 1163 (A. fumigatus 1163): 500 µM (≈ 482 µg/mL)
- Average MIC [1, 2]: 438 µM
- MIC C. tropicalis (C. tropicalis): 250 µM (≈ 241 µg/mL)
- MIC C. albicans (C. albicans): 250 µM (≈ 241 µg/mL)
